The source of these data is US8278345B2, “Inhibitors of glutaminyl cyclase” (Probiodrug AG, priority 2006, dated 2012).

For this test, the target named is hQC (Homo sapiens, UniProt Q16769). Briefly: Inhibitor assay for glutaminyl cyclase activity (fluorometric, H-Gln-βNA / H-Gln-AMC). The test is classed as biochemical. The method in brief: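 Coupled fluorometric assay at 30 °C with pyroglutamyl aminopeptidase, in Tris/HCl pH 8.0 with EDTA, substrate H-Gln-βNA (0.2 mM; ex/em 320/410 nm) or H-Gln-AMC (ex/em 380/460 nm), initiated by QC. Screening: 4 mM inhibitor, substrate at 1 KM; Ki from progress curves fitted to competitive inhibition.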
Chain of hQC (Q16769 29-361): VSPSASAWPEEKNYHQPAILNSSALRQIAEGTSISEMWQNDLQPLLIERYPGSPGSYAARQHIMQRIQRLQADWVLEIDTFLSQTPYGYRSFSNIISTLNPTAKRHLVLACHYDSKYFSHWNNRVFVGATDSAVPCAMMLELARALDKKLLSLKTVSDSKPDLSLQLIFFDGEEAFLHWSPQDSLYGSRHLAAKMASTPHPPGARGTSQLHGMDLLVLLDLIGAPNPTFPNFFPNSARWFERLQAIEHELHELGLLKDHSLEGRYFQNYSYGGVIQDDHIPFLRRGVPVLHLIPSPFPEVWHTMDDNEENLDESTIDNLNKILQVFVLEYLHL

Like-named read-outs stand apart in the source and are kept apart here.

Usually IC50 stands for the concentration at which inhibition is half-maximal. As for `CC(C)/C=C/C1C(c2ccccc2)=C(O)C(=O)N1CCCn1ccnc1` (stereo not drawn) [Compound 83, 3-Hydroxy-1-(3-imidazol-1-yl-propyl)-5-(3-methyl-but-1-enyl)-4-phenyl-1,5-dihydro-pyrrol-2-one], the IC50 (read-out: IC50) was found to be 6700 nM.
Same read-out and setting: the figure for `CC1=C(O)C(=O)N(c2ccc3[nH]cnc3c2)C1c1ccc(O)cc1O` (stereo not drawn) [Compound 265, 1-(1H-Benzoimidazol-5-yl)-5-(2,4-dihydroxy-phenyl)-3-hydroxy-4-methyl-1,5-dihydro-pyrrol-2-one] is 3370 nM.
On the same count and under the same terms, the figure for `CC1=C(O)C(=O)N(CCCn2ccnc2)C1c1cccc(Cl)c1` (stereo not drawn) [Compound 50, 5-(3-Chloro-phenyl)-3-hydroxy-1-(3-imidazol-1-yl-propyl)-4-methyl-1,5-dihydro-pyrrol-2-one] is 400 nM.
The same measure, in the same setting: the same measure for `CC1=C(O)C(=O)N(c2ccc3[nH]cnc3c2)C1c1cnc2ccccc2c1` (stereo not drawn) [Compound 448, 1-(1H-Benzoimidazol-5-yl)-3-hydroxy-4-methyl-5-quinolin-3-yl-1,5-dihydro-pyrrol-2-one]: 1750 nM.
As for `CC(C)(C)C(=O)C1=C(O)C(=O)N(c2ccc3[nH]cnc3c2)C1c1c(F)c(F)cc(F)c1F` (stereo not drawn) [Compound 442, 1-(1H-Benzoimidazol-5-yl)-4-(2,2-dimethyl-propionyl)-3-hydroxy-5-(2,3,5,6-tetrafluoro-phenyl)-1,5-dihydro-pyrrol-2-one], the IC50 (read-out: IC50) was found to be 8590 nM.
Regarding `CCCCCC1=C(O)C(=O)N(CCCn2ccnc2)C1CC` (stereo not drawn) [Compound 215, 5-Ethyl-3-hydroxy-1-(3-imidazol-1-yl-propyl)-4-pentyl-1,5-dihydro-pyrrol-2-one], the IC50 (read-out: IC50) was 1300 nM.
Regarding `Cc1ccc2c(C3C(C(=O)C4CC4)=C(O)C(=O)N3c3ccc4[nH]cnc4c3)c[nH]c2c1` (stereo not drawn) [Compound 453, 1-(1H-Benzoimidazol-5-yl)-4-cyclopropanecarbonyl-3-hydroxy-5-(6-methyl-1H-indol-3-yl)-1,5-dihydro-pyrrol-2-one], the IC50 (read-out: IC50) turned out to be 7420 nM.
Same read-out and setting: the figure for `CCCC(=O)C1=C(O)C(=O)N(c2ccc3[nH]cnc3c2)C1c1nccs1` (stereo not drawn) [Compound 254, 1-(1H-Benzoimidazol-5-yl)-4-butyryl-3-hydroxy-5-thiazol-2-yl-1,5-dihydro-pyrrol-2-one] is 2200 nM; for `O=C(C1=C(O)C(=O)N(c2ccc3[nH]cnc3c2)C1c1c[nH]cn1)C1CCCCC1` (stereo not drawn) [Compound 255, 1-(1H-Benzoimidazol-5-yl)-4-cyclohexanecarbonyl-3-hydroxy-5-(1H-imidazol-4-yl)-1,5-dihydro-pyrrol-2-one] it is 2470 nM.
On the same count and under the same terms, the same measure for `Cc1ccc(O)c(C2C(C(=O)C3CC3)=C(O)C(=O)N2c2ccc3[nH]cnc3c2)c1` (stereo not drawn) [Compound 343, 1-(1H-Benzoimidazol-5-yl)-4-cyclopropanecarbonyl-3-hydroxy-5-(2-hydroxy-5-methyl-phenyl)-1,5-dihydro-pyrrol-2-one]: 3280 nM.
With `O=C1C(O)=C(c2ccc(O)cc2)C(c2ccccc2F)N1CCCn1ccnc1` (stereo not drawn) [Compound 180, 5-(2-Fluoro-phenyl)-3-hydroxy-4-(4-hydroxy-phenyl)-1-(3-imidazol-1-yl-propyl)-1,5-dihydro-pyrrol-2-one], the IC50 reads like this: (compound from preparative synthesis, purified, read-out: IC50 hQC) 344 nM; (read-out: IC50) 40 nM.
Take `Cc1ccc(C2C(c3c[nH]c4ccccc34)=C(O)C(=O)N2CCCn2ccnc2)o1` (stereo not drawn) [Compound 119, 3-Hydroxy-1-(3-imidazol-1-yl-propyl)-4-(1H-indol-3-yl)-5-(5-methyl-furan-2-yl)-1,5-dihydro-pyrrol-2-one]: the IC50 (read-out: IC50) stood at 400 nM.
Consider `CC1=C(O)C(=O)N(CCCn2ccnc2)C1C(F)(F)F` (stereo not drawn) [Compound 38, 3-Hydroxy-1-(3-imidazol-1-yl-propyl)-4-methyl-5-trifluoromethyl-1,5-dihydro-pyrrol-2-one], for which, for the setting “read-out: IC50”, the half-inhibitory concentration (IC50) came to 2200 nM.
Consider `O=C1C(O)=C(c2ccc(O)cc2)C(C2CC2)N1CCCn1ccnc1` (stereo not drawn) [Compound 175, 5-Cyclopropyl-3-hydroxy-4-(4-hydroxy-phenyl)-1-(3-imidazol-1-yl-propyl)-1,5-dihydro-pyrrol-2-one], for which the IC50 (read-out: IC50) was 40 nM.
